In ChEMBL document CHEMBL1201862, “PubChem BioAssay data set” (2004):
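Method: 48-hour compound exposure of cells in 96-well plates, five concentrations, linear interpolation of endpoints. GI50 = concentration required for 50% inhibition of growth.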 The source made the active and inactive calls. Rule as the data show it: active = GI50 up to about 1.1 µM and inactive = higher.

How the values were obtained:
Experiment in all cases: NCI anticancer screen, dose series, 48 h
[1] = system: 786-0
[2] = system: A498
[3] = system: HCT-116
[4] = system: HCT-15
[5] = system: HOP-62
[6] = system: IGROV-1
[7] = system: K562
[8] = system: MCF7
[9] = system: MDA-MB-435
[10] = system: MDA-N
[11] = system: NCI-H226
[12] = system: NCI-H460
[13] = system: NCI/ADR-RES
[14] = system: OVCAR-3
[15] = system: OVCAR-5
[16] = system: SK-MEL-28
[17] = system: SK-MEL-2
[18] = system: SNB-19
[19] = system: UACC-257

In the case of `N=C(N)SCc1ccc(Cl)c2ccccc12.O=[N+]([O-])c1ccc(O)c([N+](=O)[O-])c1`, the GI50 [1] is reported as 12.4 µM (inactive), the GI50 [2] is reported as 9.4 µM (inactive) and the GI50 [3] is reported as 13.4 µM (inactive). The GI50 [4] was 14.5 µM, the GI50 [5] was 14.1 µM (inactive) and the GI50 [6] was 14.2 µM (inactive). For the same compound, the GI50 [7] was 0.421 µM (active), the GI50 [8] was 10 µM (inactive) and the GI50 [9] was 8.24 µM (inactive). For the same compound, the GI50 [10] was 11.1 µM (inactive), the GI50 [11] was 12.4 µM (inactive) and the GI50 [12] was 7.55 µM (inactive). For the same compound, the GI50 [13] was 16.7 µM (inactive), the GI50 [14] was 8.95 µM (inactive) and the GI50 [15] was 13.5 µM (inactive). The GI50 [16] was 12.6 µM (inactive), the GI50 [17] was 11.6 µM (inactive) and the GI50 [18] was 16.2 µM (inactive). For the same compound, the GI50 [19] was 4.19 µM (inactive).

With `CC(C)(C)OC(=O)[C@@H]1CCC(=O)N1C1(c2ccccc2)c2ccccc2-c2ccccc21` the GI50 [1] was 38.8 µM (inactive), the GI50 [2] was 64.7 µM (inactive) and the GI50 [3] was 37.8 µM (inactive). For the same compound, the GI50 [4] was 55.5 µM, the GI50 [5] was 58.5 µM (inactive) and the GI50 [6] was 56.4 µM (inactive). For the same compound, the GI50 [7] was 41 µM (inactive), the GI50 [8] was 67.6 µM (inactive) and the GI50 [9] was 30.1 µM (inactive). For the same compound, the GI50 [10] was 29.4 µM (inactive), the GI50 [11] was > 100 µM (inactive) and the GI50 [12] was 30.5 µM (inactive). The GI50 [13] was > 100 µM (inactive), the GI50 [14] was 27.4 µM (inactive) and the GI50 [15] was 93.1 µM (inactive). For the same compound, the GI50 [16] was 28.6 µM (inactive), the GI50 [17] was 26.2 µM (inactive) and the GI50 [18] was > 100 µM (inactive). The GI50 [19] was 77.1 µM (inactive).

With `COc1cc(OC)c(C2(c3c(OC(C)C)c(=O)c3=O)SCCCS2)cc1OC` the GI50 [1] was > 100 µM (inactive), the GI50 [2] was > 100 µM (inactive) and the GI50 [3] was > 100 µM (inactive). For the same compound, the GI50 [4] was > 100 µM, the GI50 [5] was > 100 µM (inactive) and the GI50 [6] was > 100 µM (inactive). The GI50 [7] was > 100 µM (inactive), the GI50 [8] was > 100 µM (inactive) and the GI50 [9] was > 100 µM (inactive). For the same compound, the GI50 [10] was > 100 µM (inactive), the GI50 [11] was > 100 µM (inactive) and the GI50 [12] was > 100 µM (inactive). For the same compound, the GI50 [13] was > 100 µM (inactive), the GI50 [14] was > 100 µM (inactive) and the GI50 [15] was > 100 µM (inactive). For the same compound, the GI50 [16] was > 100 µM (inactive), the GI50 [17] was > 100 µM (inactive) and the GI50 [18] was > 100 µM (inactive). For the same compound, the GI50 [19] was > 100 µM (inactive).

`Nc1nc2c(c(-c3ccccc3Cl)n1)COC/C2=C\c1ccccc1Cl` was tested, and the GI50 [1] was 17.2 µM (inactive), the GI50 [2] was 16.4 µM (inactive) and the GI50 [3] was 15.8 µM (inactive). The GI50 [4] was 15.9 µM, the GI50 [5] was 18.1 µM (inactive) and the GI50 [6] was 15.8 µM (inactive). The GI50 [7] was 12.2 µM (inactive), the GI50 [8] was 14.5 µM (inactive) and the GI50 [9] was 10.3 µM (inactive). For the same compound, the GI50 [10] was 10.9 µM (inactive), the GI50 [11] was 18.8 µM (inactive) and the GI50 [12] was 18.6 µM (inactive). For the same compound, the GI50 [13] was 16.8 µM (inactive), the GI50 [14] was 17.4 µM (inactive) and the GI50 [15] was 17.2 µM (inactive). The GI50 [17] was 16.9 µM (inactive), the GI50 [18] was 15.7 µM (inactive) and the GI50 [19] was 18.7 µM (inactive).

For `Cc1c(-c2ccccc2)c(C#N)c2nnn(-c3ccc([N+](=O)[O-])cc3)c(=O)n12`, the GI50 [1] was 5.14 µM (inactive), the GI50 [2] was 19.9 µM (inactive) and the GI50 [3] was 24.5 µM (inactive). The GI50 [4] was 20.7 µM, the GI50 [5] was 13.6 µM (inactive) and the GI50 [6] was 10.2 µM (inactive). For the same compound, the GI50 [7] was 20.5 µM (inactive), the GI50 [8] was 16.2 µM (inactive) and the GI50 [9] was 24.8 µM (inactive). The GI50 [10] was 40.6 µM (inactive), the GI50 [11] was 13.2 µM (inactive) and the GI50 [12] was 22.5 µM (inactive). For the same compound, the GI50 [13] was 15.9 µM (inactive), the GI50 [14] was 15.3 µM (inactive) and the GI50 [15] was 27.4 µM (inactive). For the same compound, the GI50 [16] was 32.6 µM (inactive), the GI50 [17] was 8.91 µM (inactive) and the GI50 [19] was > 100 µM (inactive).

For `CC12CC3CC/C(=N\O)C(C1)C3(N1CCOCC1)C/C2=N/O` (stereo not drawn), the GI50 [1] was > 100 µM (inactive), the GI50 [2] was > 100 µM (inactive) and the GI50 [3] was > 100 µM (inactive). For the same compound, the GI50 [4] was > 100 µM, the GI50 [5] was > 100 µM (inactive) and the GI50 [6] was > 100 µM (inactive). The GI50 [7] was > 100 µM (inactive), the GI50 [8] was > 100 µM (inactive) and the GI50 [9] was > 100 µM (inactive). For the same compound, the GI50 [10] was > 100 µM (inactive), the GI50 [11] was > 100 µM (inactive) and the GI50 [12] was > 100 µM (inactive). The GI50 [13] was > 100 µM (inactive), the GI50 [14] was > 100 µM (inactive) and the GI50 [15] was > 100 µM (inactive). The GI50 [16] was > 100 µM (inactive), the GI50 [17] was > 100 µM (inactive) and the GI50 [18] was > 100 µM (inactive). The GI50 [19] was > 100 µM (inactive).

In the case of `O=P1(N(CCCl)CCCl)Oc2ccc(Cl)cc2Sc2c(ccc(Cl)c2Cl)O1` (stereo not drawn), the GI50 [1] is reported as 8.13 µM (inactive), the GI50 [2] is reported as 22.2 µM (inactive) and the GI50 [3] is reported as 4.97 µM (inactive). For the same compound, the GI50 [4] was 5.18 µM, the GI50 [5] was 16 µM (inactive) and the GI50 [7] was 3.47 µM (inactive). The GI50 [8] was 6.38 µM (inactive), the GI50 [9] was 7.1 µM (inactive) and the GI50 [10] was 7.91 µM (inactive). For the same compound, the GI50 [11] was 8.26 µM (inactive), the GI50 [12] was 4.79 µM (inactive) and the GI50 [13] was 6.04 µM (inactive). The GI50 [14] was 4.95 µM (inactive), the GI50 [15] was 27.4 µM (inactive) and the GI50 [16] was 11.5 µM (inactive). The GI50 [17] was 9.68 µM (inactive) and the GI50 [19] was 10.4 µM (inactive).

`CCOP(=O)(OCC)C(F)(F)Cc1cnc(C)c2c1COC(C)(C)O2` was tested, and the GI50 [1] was > 10 µM (inactive), the GI50 [2] was > 10 µM (inactive) and the GI50 [3] was > 10 µM (inactive). For the same compound, the GI50 [4] was > 10 µM, the GI50 [5] was > 10 µM (inactive) and the GI50 [6] was > 10 µM (inactive). For the same compound, the GI50 [7] was > 10 µM (inactive), the GI50 [8] was > 10 µM (inactive) and the GI50 [9] was > 10 µM (inactive). The GI50 [10] was > 10 µM (inactive), the GI50 [11] was > 10 µM (inactive) and the GI50 [12] was > 10 µM (inactive). The GI50 [13] was > 10 µM (inactive), the GI50 [14] was > 10 µM (inactive) and the GI50 [15] was > 10 µM (inactive). The GI50 [16] was > 10 µM (inactive), the GI50 [17] was > 10 µM (inactive) and the GI50 [18] was > 10 µM (inactive). The GI50 [19] was > 10 µM (inactive).
